# Results as given in US20090197906A1, “REVERSION OF MALIGNANT PHENOTYPE WITH 9-HYDROXY ELLIPTICINE DERIVATIVES” (priority 2006, published 2009).
# pIC50: −log10 of the molar value. Where two headings read alike, the source gives them in different places.
# What was measured:
# [1] = system: NIH 3T3 EF; assay: cloning assay in methylcellulose (colony formation); assay type: cell-based; details: read-out: Inhibition of colony formation (methylcellulose) IC50
# Experimental: Cells were embedded in complete culture medium supplemented with 0.8% methylcellulose (Methocel MC4000, Sigma), seeded in triplicate into 35-mm dishes (Greiner Bio-one Ref 627102, Dominique Dutscher) and incubated at 37° C. in a humidified 5% CO2 atmosphere. The number of cells seeded was 1000 cells per dish. After one to three weeks, according to cell lines, macroscopic clones were counted.
# [2] = system: NIH 3T3 EF; assay: MTT cell proliferation assay; assay type: cell-based; details: 3 days, read-out: Cytotoxic effect (MTT) IC50
# Experimental: (§1) Growth studies were performed using the [3-(4,5 dimethylthiazol-2-yl)-2,5-diphenyl-2H-tetrazolium bromide] (Sigma) calorimetric assay.
# (§2) About 1500 to 5000 cells, according to the cell line, were seeded in a 96-well culture plate 24 hours before adding increasing concentrations of BA016DD537 or BA016FZ539. The plate was incubated at 37° C. for 3 days. 10 μl MTT stock solution (5 mg/ml in phosphate buffer saline) was added to 90 μl of complete medium in each well, the incubation was continued for 3 h at 37° C. 100 μl of lysis buffer (10% sodium dodecyl sulfate, 1% HCl 1N; pH 4.7) was added to each well, and the plate was incubated overnight. The absorbance was determined using an Integrated EIA Management System (Labsystem) at a wavelength of 570 nm. The proliferation rates were calculated from the OD readings using the untreated cells as 100%.
# [3] = system: B16F10 melanoma cells; assay: wound healing assay (cell motility); assay type: cell-based, murine; details: 50 nM
# Experimental: Wound healing assay was performed to evaluate the effect of BA016DD537 on motility of malignant NIH 3T3 EF cells and melanoma cell lines B16F10 and B16BL6. All the cells were incubated at 37° C. in a humidified 5% CO2 atmosphere. About 100 000-200 000 cells were seeded in a 6-well culture plate and BA016DD537, at the different concentrations, was added 24 hours later. Cells were grown for 3 days to confluence about 90-95% and small scratch-wounds (about 200 μm-1 mm width) were made with a pipette tip. Cell debris were removed, then the cultures were incubated in complete medium for 10 h in the presence of the same concentration of BA016DD537. Then, the cells were fixed for 10 min in PBS containing 3.7% formaldehyde at 4° C.
# [4] = system: NIH 3T3 EF cells; assay: F-actin network rescue, FITC-phalloidin fluorescence microscopy; assay type: cell-based; details: non cytotoxic concentrations (100 nM and 200 nM), three days
# Experimental: Malignant NIH 3T3 EF cells were seeded onto glass cover slips at a density of 2000 cells per cm^2. The next day, BA016DD537 was applied to NIH 3T3 EF cells at various non cytotoxic concentrations (100 nM and 200 nM). Three days later, cells were fixed for 10 min in PBS containing 3.7% formaldehyde at 4° C. before examination with a fluorescence microscope. The formaldehyde solution was neutralized with 50 mM NH4Cl. Extraction was carried out for 4 min with 0.4% Triton X-100 in PBS. Cells were incubated for 1 h with blocking buffer (3% bovine serum albumin in PBS) and then for 20 min with FITC-phalloidin (Sigma) at room temperature. Cover slips were mounted in Vectashieldk (Zymed) and observed through a fluorescence microscope (Nikon).
# [5] = system: B16BL6; assay: MTT cell proliferation assay; assay type: cell-based; details: B16BL6, 3 days; read-out: Cytotoxic effect (MTT) IC50
# Experimental: as §1, §2
# [6] = system: SK-N-MC; assay: MTT cell proliferation assay; assay type: cell-based; details: 3 days, read-out: Cytotoxic effect (MTT) IC50
# Experimental: as §1, §2
# [7] = system: PANC-1 cell line; assay: morphological changes under microscopic observation (phenotype reversal); assay type: cell-based, human
# From the text: (§3) Changes in configuration and number of pancreatic cell lines were observed under microscopic observation (FIG. 5).
# [8] = system: MIA PaCa-2 cells; assay: as above; assay type: cell-based, human; details: 4 μM for 3 days
# From the text: as §3
# [9] = system: NCI-H446; assay: SRB (sulforhodamine B) cell proliferation assay; assay type: cell-based, human; details: NCI-H446, viability 72 h, mean +/− SEM
# Experimental: (§4) Growth studies were performed using the Sulforhodamine B (SRB) calorimetric assay (Sigma).
# (§5) SRB assay is used for cell density determination based on the measurement of cellular protein content. This method has been optimized for toxicity screening of compounds in adherent cells in a 96-well format (Skehan et al., Proc. Amer. Assoc. Cancer Res. 1989, 30:2436).
# (§6) About 50 000 NCI-H510, NCI-H446 or NCI-H187 cells were seeded in a 96-well culture plate while adding increasing concentrations of BA016FZ539.
# (§7) After an incubation period, cell monolayers are fixed with 10% (wt/vol) trichloroacetic acid and stained for 30 min, after which the excess dye is removed by washing repeatedly with 1% (vol/vol) acetic acid. The protein-bound dye is dissolved in 10 mM Tris base solution for optic density determination (OD) at 510 nm using a microplate reader.
# (§8) The proliferation rates were calculated from the OD readings using the untreated cells as 100%.
# [10] = system: NCI-H187; assay: SRB (sulforhodamine B) cell proliferation assay; assay type: cell-based, human; details: NCI-H187, viability 72 h, mean +/− SEM
# Experimental: as §4, §5, §6, §7, §8
# [11] = system: NCI-H510; assay: SRB (sulforhodamine B) cell proliferation assay; assay type: cell-based, human; details: NCI-H510, viability 72 h, mean +/− SEM
# Experimental: as §4, §5, §6, §7, §8
# [12] = system: 451 Lu; assay: MTT cell proliferation assay; assay type: cell-based, human; details: 3 days, read-out: Cytotoxic effect (MTT) IC50
# Experimental: as §1, §2
# [13] = system: C9; assay: MTT cell proliferation assay; assay type: cell-based, human; details: C9, 3 days; read-out: Cytotoxic effect (MTT) IC50
# Experimental: as §1, §2
# [14] = system: A375; assay: MTT cell proliferation assay; assay type: cell-based, human; details: A375, 3 days; read-out: Cytotoxic effect (MTT) IC50
# Experimental: as §1, §2
# [15] = system: PANC-1; assay: MTT cell proliferation assay; assay type: cell-based, human
# Experimental: as §1, §2
# [16] = system: Mia Paca-2; assay: MTT cell proliferation assay; assay type: cell-based, human
# Experimental: as §1, §2
# [17] = system: SKMEL28; assay: MTT cell proliferation assay; assay type: cell-based, human; details: SKMEL28, 3 days; read-out: Cytotoxic effect (MTT) IC50
# Experimental: as §1, §2
# [18] = system: 1205 Lu; assay: MTT cell proliferation assay; assay type: cell-based, human; details: 3 days, read-out: Cytotoxic effect (MTT) IC50
# Experimental: as §1, §2
# [19] = system: HT144; assay: MTT cell proliferation assay; assay type: cell-based, human; details: HT144, 3 days; read-out: Cytotoxic effect (MTT) IC50
# Experimental: as §1, §2
smiles,measurement,setting,value
"Cc1c2cc[n+](CCN3CCCCC3)cc2c(C)c2c1[nH]c1ccc(O)cc12.[Cl-] [BA016DD537, 2-(β-piperidinoethyl)-9-hydroxyellipticinium chloride]",pIC50,[1],7.52
same,pIC50,[2],6.40
same,inhibition of cell migration,[3],complete inhibition
same,rebuilding of actin network / morphology,[4],able to rebuilt actin network in tumor cells at non cytotoxic concentration
"CS(=O)(=O)[O-].Cc1c2cc[n+](CCN3CCCCC3)cc2c(C)c2c1[nH]c1ccc(O)cc12 [BA016FZ539, 2-(betapiperidino-2-ethyl)-9-hydroxyellipticinium methanesulfonate]",pIC50,[5],6.67
same,pIC50,[6],6.08
same,reversal of the transformed phenotype (cell morphology),[7],not in PANC-1 cell line
same,reversal of the transformed phenotype (cell morphology),[8],"reversal from the transformed phenotype (FIG. 5, A) to a normal phenotype"
same,IC50,[9],22.4 µM
same,IC50,[10],16.9 µM
same,IC50,[11],5.8 µM
same,pIC50,[12],5.38
same,pIC50,[13],5.68
same,pIC50,[14],5.54
same,pIC50,"[15]; PANC-1, 3 days, read-out: Cytotoxic effect (MTT) IC50",4.66
same,IC50,"[15]; PANC-1, viability 72 h (Example 9), read-out: IC50 (μM) MTT",22 µM
same,IC50,"[16]; MIA PaCA-2, viability 72 h, mean +/− SEM (Example 9), read-out: IC50 (μM) MTT",7.58 µM
same,pIC50,"[16]; Mia Paca-2, 3 days, read-out: Cytotoxic effect (MTT) IC50",5.12
same,pIC50,[17],4.97
same,pIC50,[18],5.80
same,pIC50,[19],5.05
